Organism: Rattus norvegicus
Test: DrugMatrix - Regimen: Daily Repeat
Type: toxicity, organism-based, Sprague-Dawley
Design: regimen Daily Repeat, gender Male, age 6-8 weeks
Details: in vivo, po, 0 mg/kg, route oral GAVAGE, dose level Control, […]; for ABSOLUTE BASOPHIL / ABSOLUTE EOSINOPHIL / ABSOLUTE LYMPHOCYTE / ABSOLUTE MONOCYTE / ABSOLUTE SEGMENTED NEUTROPHIL / BASOPHIL / EOSINOPHIL / ERYTHROCYTE COUNT / HEMATOCRIT / HEMOGLOBIN / LEUKOCYTE COUNT / LYMPHOCYTE / MEAN CORPUSCULAR HEMOGLOBIN / MEAN CORPUSCULAR HEMOGLOBIN CONCENTRATION / MEAN CORPUSCULAR VOLUME / MONOCYTE / NEUTROPHIL / NUCLEATED RED BLOOD CELLS / PLATELET COUNT: tissue Blood; for ALANINE AMINOTRANSFERASE / ALBUMIN / ALKALINE PHOSPHATASE / ASPARTATE AMINOTRANSFERASE / BLOOD UREA NITROGEN / CARBON DIOXIDE / CHLORIDE / CHOLESTEROL / CREATINE PHOSPHOKINASE / CREATININE / GLUCOSE / LACTATE DEHYDROGENASE / LIPASE / PHOSPHORUS / POTASSIUM / SODIUM / TOTAL BILIRUBIN / TOTAL PROTEIN / URIC ACID: tissue Plasma

CC(C)(Oc1ccc(CCNC(=O)c2ccc(Cl)cc2)cc1)C(=O)O [BEZAFIBRATE]
ABSOLUTE BASOPHIL (72 h, time 3 day): 0 CELLS/uL
ABSOLUTE EOSINOPHIL (72 h, time 3 day): 37.33 CELLS/uL
ABSOLUTE LYMPHOCYTE (72 h, time 3 day): 6295.33 CELLS/uL
ABSOLUTE MONOCYTE (72 h, time 3 day): 122.17 CELLS/uL
ABSOLUTE SEGMENTED NEUTROPHIL (72 h, time 3 day): 861.83 CELLS/uL
BASOPHIL (72 h, time 3 day): 0%
EOSINOPHIL (72 h, time 3 day): 0.5%
ERYTHROCYTE COUNT (72 h, time 3 day): 5.2 x10E6/uL
HEMATOCRIT (72 h, time 3 day): 32.58%
HEMOGLOBIN (72 h, time 3 day): 12.95 G/DL
LEUKOCYTE COUNT (72 h, time 3 day): 7.32 x10E3/uL
LYMPHOCYTE (72 h, time 3 day): 86%
MEAN CORPUSCULAR HEMOGLOBIN (72 h, time 3 day): 24.93 pg
MEAN CORPUSCULAR HEMOGLOBIN CONCENTRATION (72 h, time 3 day): 39.77 G/DL
MEAN CORPUSCULAR VOLUME (72 h, time 3 day): 62.65 fL
MONOCYTE (72 h, time 3 day): 1.67%
NEUTROPHIL (72 h, time 3 day): 11.83%
NUCLEATED RED BLOOD CELLS (72 h, time 3 day): 0 /100WBC
PLATELET COUNT (72 h, time 3 day): 1029 x10E3/uL
ALANINE AMINOTRANSFERASE (72 h, time 3 day): 63.67 u/L
ALBUMIN (72 h, time 3 day): 4.12 G/DL
ALKALINE PHOSPHATASE (72 h, time 3 day): 329.83 u/L
ASPARTATE AMINOTRANSFERASE (72 h, time 3 day): 77.67 u/L
BLOOD UREA NITROGEN (72 h, time 3 day): 18 mg/dL
CARBON DIOXIDE (72 h, time 3 day): 29.67 mmol/L
CHLORIDE (72 h, time 3 day): 102.67 MEQ/L
CHOLESTEROL (72 h, time 3 day): 64.5 mg/dL
CREATINE PHOSPHOKINASE (72 h, time 3 day): 178.67 u/L
CREATININE (72 h, time 3 day): 0.18 mg/dL
GLUCOSE (72 h, time 3 day): 163.83 mg/dL
LACTATE DEHYDROGENASE (72 h, time 3 day): 75.83 u/L
LIPASE (72 h, time 3 day): 10 u/L
PHOSPHORUS (72 h, time 3 day): 8.28 mg/dL
POTASSIUM (72 h, time 3 day): 4.79 MEQ/L
SODIUM (72 h, time 3 day): 142.22 MEQ/L
TOTAL BILIRUBIN (72 h, time 3 day): 0.22 mg/dL
TOTAL PROTEIN (72 h, time 3 day): 5.78 G/DL
URIC ACID (72 h, time 3 day): 0.87 mg/dL
BASOPHIL (120 h, time 5 day): 0.32%
EOSINOPHIL (120 h, time 5 day): 0.58%
ERYTHROCYTE COUNT (120 h, time 5 day): 7.26 x10E6/uL
HEMATOCRIT (120 h, time 5 day): 46.94%
HEMOGLOBIN (120 h, time 5 day): 14.9 G/DL
LEUKOCYTE COUNT (120 h, time 5 day): 8.69 x10E3/uL
LYMPHOCYTE (120 h, time 5 day): 81.52%
MEAN CORPUSCULAR HEMOGLOBIN (120 h, time 5 day): 20.58 pg
MEAN CORPUSCULAR HEMOGLOBIN CONCENTRATION (120 h, time 5 day): 31.8 G/DL
MEAN CORPUSCULAR VOLUME (120 h, time 5 day): 64.68 fL
MONOCYTE (120 h, time 5 day): 2.16%
NEUTROPHIL (120 h, time 5 day): 13.88%
PLATELET COUNT (120 h, time 5 day): 1531.2 x10E3/uL
ALANINE AMINOTRANSFERASE (120 h, time 5 day): 33.2 u/L
ALBUMIN (120 h, time 5 day): 3.74 G/DL
ALKALINE PHOSPHATASE (120 h, time 5 day): 318 u/L
ASPARTATE AMINOTRANSFERASE (120 h, time 5 day): 78.6 u/L
BLOOD UREA NITROGEN (120 h, time 5 day): 6 mg/dL
CHLORIDE (120 h, time 5 day): 108.4 MEQ/L
CHOLESTEROL (120 h, time 5 day): 63 mg/dL
CREATINE PHOSPHOKINASE (120 h, time 5 day): 251 u/L
CREATININE (120 h, time 5 day): 0.18 mg/dL
GLUCOSE (120 h, time 5 day): 125.6 mg/dL
PHOSPHORUS (120 h, time 5 day): 12.06 mg/dL
POTASSIUM (120 h, time 5 day): 5.92 MEQ/L
SODIUM (120 h, time 5 day): 146.8 MEQ/L
TOTAL BILIRUBIN (120 h, time 5 day): 0.16 mg/dL
TOTAL PROTEIN (120 h, time 5 day): 6.06 G/DL
ABSOLUTE BASOPHIL (time 7 day): 0 CELLS/uL
ABSOLUTE EOSINOPHIL (time 7 day): 19 CELLS/uL
ABSOLUTE LYMPHOCYTE (time 7 day): 7803.5 CELLS/uL
ABSOLUTE MONOCYTE (time 7 day): 117.83 CELLS/uL
ABSOLUTE SEGMENTED NEUTROPHIL (time 7 day): 1093 CELLS/uL
BASOPHIL (time 7 day): 0%
EOSINOPHIL (time 7 day): 0.17%
ERYTHROCYTE COUNT (time 7 day): 5.84 x10E6/uL
HEMATOCRIT (time 7 day): 35.75%
HEMOGLOBIN (time 7 day): 13.87 G/DL
LEUKOCYTE COUNT (time 7 day): 9.03 x10E3/uL
LYMPHOCYTE (time 7 day): 87.17%
MEAN CORPUSCULAR HEMOGLOBIN (time 7 day): 23.78 pg
MEAN CORPUSCULAR HEMOGLOBIN CONCENTRATION (time 7 day): 38.8 G/DL
MEAN CORPUSCULAR VOLUME (time 7 day): 61.25 fL
MONOCYTE (time 7 day): 1.17%
NEUTROPHIL (time 7 day): 11.5%
NUCLEATED RED BLOOD CELLS (time 7 day): 0 /100WBC
PLATELET COUNT (time 7 day): 1098.67 x10E3/uL
BASOPHIL (time 28 day): 0.42%
EOSINOPHIL (time 28 day): 0.58%
ERYTHROCYTE COUNT (time 28 day): 8.06 x10E6/uL
HEMATOCRIT (time 28 day): 48.44%
HEMOGLOBIN (time 28 day): 16.34 G/DL
LEUKOCYTE COUNT (time 28 day): 13.04 x10E3/uL
LYMPHOCYTE (time 28 day): 85.12%
MEAN CORPUSCULAR HEMOGLOBIN (time 28 day): 20.26 pg
MEAN CORPUSCULAR HEMOGLOBIN CONCENTRATION (time 28 day): 33.74 G/DL
MEAN CORPUSCULAR VOLUME (time 28 day): 60.1 fL
MONOCYTE (time 28 day): 1.44%
NEUTROPHIL (time 28 day): 11.28%
PLATELET COUNT (time 28 day): 1226 x10E3/uL
ALANINE AMINOTRANSFERASE (time 7 day): 66 u/L
ALBUMIN (time 7 day): 4.3 G/DL
ALKALINE PHOSPHATASE (time 7 day): 291.83 u/L
ASPARTATE AMINOTRANSFERASE (time 7 day): 80.5 u/L
BLOOD UREA NITROGEN (time 7 day): 15.67 mg/dL
CARBON DIOXIDE (time 7 day): 30 mmol/L
CHLORIDE (time 7 day): 101.67 MEQ/L
CHOLESTEROL (time 7 day): 69.67 mg/dL
CREATINE PHOSPHOKINASE (time 7 day): 363.33 u/L
CREATININE (time 7 day): 0.25 mg/dL
GLUCOSE (time 7 day): 146.5 mg/dL
LACTATE DEHYDROGENASE (time 7 day): 219.67 u/L
LIPASE (time 7 day): 11.33 u/L
PHOSPHORUS (time 7 day): 10.08 mg/dL
POTASSIUM (time 7 day): 5.22 MEQ/L
SODIUM (time 7 day): 144.67 MEQ/L
TOTAL BILIRUBIN (time 7 day): 0.12 mg/dL
TOTAL PROTEIN (time 7 day): 6.33 G/DL
URIC ACID (time 7 day): 0.75 mg/dL
ALANINE AMINOTRANSFERASE (time 28 day): 28.6 u/L
ALBUMIN (time 28 day): 3.94 G/DL
ALKALINE PHOSPHATASE (time 28 day): 254.6 u/L
ASPARTATE AMINOTRANSFERASE (time 28 day): 67.8 u/L
BLOOD UREA NITROGEN (time 28 day): 10.4 mg/dL
CHLORIDE (time 28 day): 104.6 MEQ/L
CHOLESTEROL (time 28 day): 57.6 mg/dL
CREATINE PHOSPHOKINASE (time 28 day): 224.8 u/L
CREATININE (time 28 day): 0.4 mg/dL
GLUCOSE (time 28 day): 140.6 mg/dL
PHOSPHORUS (time 28 day): 10.66 mg/dL
POTASSIUM (time 28 day): 6.58 MEQ/L
SODIUM (time 28 day): 148.6 MEQ/L
TOTAL BILIRUBIN (time 28 day): 0.24 mg/dL
TOTAL PROTEIN (time 28 day): 6.64 G/DL

From ChEMBL document CHEMBL3885881, “DrugMatrix”
